Here are results for six compounds from patent US8853406B2, “Substituted phenylenediamines as inhibitors of the interaction between MDM2 and P53” (Janssen Pharmaceutica NV, priority 2007, dated 2014).

For series [1], the system named is p53 in A2780 cells. Description: p53 ELISA in A2780 cells (capacity to preserve p53). The class given is cell-based. Conditions: lowest dose giving at least 140% of the p53 value of the control, 16 hours. On the procedure: The capacity of the compounds to preserve p53 in A2780 cells was measured with the p53 enzyme linked immunosorbent assay. The p53 assay is a “sandwich” enzyme immunoassay employing two polyclonal antibodies. A polyclonal antibody, specific for the p53 protein, has been immobilized onto the surface of the plastic wells. Any p53 present in the sample to be assayed will bind to the capture antibody. The biotinylated detector polyclonal antibody also recognizes p53 protein, and will bind to any p53, which has been retained by the capture antibody. The detector antibody, in turn, is bond by horseradish peroxidase-conjugated streptavidin. The horseradish peroxidase catalyses the conversion of the chromogenic substrate o-phenylene diamine, the intensity of which is proportional to the amount of p53 protein bond to the plate. The colored reaction product is quantified using a spectrophotometer. Quantitation is achieved by the construction of a standard curve using known concentrations of purified recombinant HIS tagged p53 protein (see example C.1.).
A2780 cells (ATCC) were cultivated in RPMI 1640 supplemented with 10% fetal calf serum (FCS), 2 mM L-glutamine and gentamycin at 37° C. in a humidified incubator with 5% CO2.
A2780 cells were seeded at 20.000 cells per well in a 96 well plate, cultured for 24 hours and treated with compound for 16 hours at 37° C. in a humidified incubator. After incubation, the cells were washed once with phosphate-buffered saline and 30 μl, per well, low salt RIPA buffer (20 mM tris, pH7.0, 0.5 mM EDTA, 1% Nonidet P40, 0.5% DOC, 0.05% SDS, 1 mM PMSF, 1 μg/ml aprotinin and 0.5 μ/ml leupeptin) was added. Plates were placed on ice for 30 minutes to complete the lysis. p53 protein was detected in de lysates by using the sandwich ELISA, described below.
High binding polystyrene EIA/RIA 96 well plates (Costar 9018) were coated with the capture antibody pAb1801 (Abcam ab28-100) at a concentration of 1 μg/ml in coating buffer (0.1 M NaHCO3 pH8.2), 50 μl per well. The antibody was allowed to adhere overnight at 4° C. Coated plates were washed once with phosphate-buffered saline (PBS)/0.05% Tween 20 and 300 μl of blocking buffer (PBS, 1% bovine serum albumins (BSA)) was added, for an incubation period of 2 hours at room temperature. Dilutions of purified recombinant HIS tagged p53 protein, ranging from 3-200 ng/ml, were made in blocking buffer and used as standards.
Plates were washed twice with PBS/0.05% Tween 20 and blocking buffer or standards were added at 80 μl/well. To the standards, 20 μl of lysis buffer was added. The samples were added to the other wells at 20 μl lysate/well. After an overnight incubation at 4° C., plates were washed twice with PBS/0.05% Tween 20. Aliquots of 100 μl secondary polyclonal antibody p53(FL-393) (Tebubio, sc-6243) at a concentration of 1 μg/ml in blocking buffer were added to each well and allowed to adhere for 2 hours at room temperature. Plates were washed three times with PBS/0.05% Tween 20. Detection antibody anti-rabbit HRP (sc-2004, Tebubio) at 0.04 μg/ml in PBS/1% BSA was added and incubated for 1 hour at room temperature. Plates were washed three times with PBS/0.05% Tween 20 and 100 μl of substrate buffer was added (substrate buffer was prepared shortly before use by adding 1 tablet of 10 mg o-phenylene diamine (OPD) from Sigma and 125 μl 3% H2O2 to 25 ml OPD buffer: 35 mM citric acid, 66 mM Na2HPO4, pH5.6). After 5 to 10 minutes, colour reaction was stopped by adding 50 μl stop buffer (1 M H2SO4) per well. The absorbance at dual wavelengths of 490/655 nm was measured using a Biorad micro plate reader and the results were then analyzed.
For each experiment, controls (containing no drug) and a blank incubation (containing no cells or drugs) were run in parallel. The blank value was subtracted from all control and sample values. For each sample, the value of p53 (in absorbance units) was expressed as the percentage of the value for p53 present in the control. […]

For series [2], the system named is p53 in U87MG cells. Description: U87MG p53-elisa as described in EP1809622. The class given is cell-based. Conditions: lowest dose giving at least 140% of the p53 value of the control.
The subject of series [3] is Male NMRI mice. Briefly: Ro-4-1284 antagonism in mice (drug induced neurological effects). Particulars: Ro-4-1284 antagonism in mice. It is filed as in vivo. The procedure:
The test is a modification of a procedure described by Colpaert et al. (1975).^3 Male NMRI mice (22±3 g) were housed in macrolon observation cages (L×W×H: 11×12×17 cm; n=3 per cage). At the start of the experiments immediately before test compound administration, the initial body temperature of the mice was measured with a precision of 0.1° C. by inserting the thermo-sensitive probe (1.0 mm diameter) of an electric thermometer (Comark) to a constant depth of 3 cm into the esophagus until a stable reading was obtained. The right eye pupil diameter was measured with a graduated microscope and expressed in 1/24 mm units. Fifteen min after test compound administration, the mice were challenged with Ro-4-1284 (10 mg/kg, s.c.). Ro-4-1284 is a reserpine-like vesicular monoamine transport (VMAT-2) inhibitor, which rapidly depletes secretory vesicles.^3,4 Fifteen, 30 and 60 min after challenge, the mice were scored for palpebral opening (0, 1, 2, 3, 4, 5) and locomotor activity (−1, 0, 1, 2, 3). At the 60-min interval, immediately after the scoring of overt behavior, the right eye pupil diameter and the esophageal temperature were measured again. Abnormal phenomena such as intensive sniffing, chewing, rearing, hyperemia, piloerection, salivation, tremors, convulsions and death were noted (the latter phenomena were also noted when occurring before Ro-4-1284 administration). Criteria for drug-induced effects: reversal of ptosis: palpebral opening score >1 at 15, 30 or 60 min (2.7, 0.5 and 0% false positive controls, respectively; n>350); induction of prostration: score −1 for locomotion at 15, 30 or 60 min (never observed in controls); reversal of hypomotility: score >0 for locomotion at 15, 30 and 60 min (2.2, 0.8 and 0% false positive controls, respectively); reversal of miosis: pupil diameter >5 units at 60 min (0.8% false positives); potentiation of hypothermia: temperature decrease (over the 1-h time interval)>9.0° C. (1.4% false positives); reversal of hypothermia: temperature decrease <3.0° C. (1.8% false positives).
According to the standard procedure, R0-4-1284 is injected 15 min following subcutaneous or oral administration and observations start 15 min later. Doses are initially given to 3 animals. When at least 2 out of the 3 animals show activity for at least one of the observations, the compound is considered active.

As to `c1ccc2c(CCNc3ccc(Nc4ccncc4)cc3)c[nH]c2c1`, the “A2780 p53-elisa LAD” value in series [1] was found to be 1.00E-06. Besides, the “U87MG p53-elisa LAD” value in series [2] was 3.00E-06. In addition, the “drug induced neurological side effects” value in series [3] is “yes”.

On to `OC1CCc2c(Nc3ccc(NCCc4c[nH]c5ccccc45)cc3)ccnc21` (stereo not shown) [drawing 34], for which the “A2780 p53-elisa LAD” value in series [1] is on record as 3.00E-07. For the same compound, the “U87MG p53-elisa LAD” value in series [2] turned out to be 1.00E-07. In addition, the “drug induced neurological side effects” value in series [3] is on record as “yes”.

For the compound `Cc1cc(Nc2ccncc2)ccc1NCCc1c[nH]c2ccccc12`, the “A2780 p53-elisa LAD” value in series [1] stood at 3.00E-06. The “U87MG p53-elisa LAD” value in series [2] came to 1.00E-05. Further, in series [3], the “drug induced neurological side effects” value is “yes”.

As for `OC1CCc2c(Nc3ccc(NCCc4c[nH]c5ccccc45)cc3)ccnc21` (stereo not shown) [drawing 33], the “A2780 p53-elisa LAD” value in series [1] is on record as 1.00E-07. In addition, the “U87MG p53-elisa LAD” value in series [2] is 1.00E-06. In addition, in series [3], the “drug induced neurological side effects” value is “yes”.

Regarding `Cc1cc(Nc2ccnc3c2CCC3O)ccc1NCCc1c[nH]c2c(C)cccc12` (stereo not shown) [compound 3], the “A2780 p53-elisa LAD” value in series [1] came out at 1.00E-07.

`Cc1cccc2c(CCNc3ccc(Nc4ccncc4)cc3)c[nH]c12`: the “A2780 p53-elisa LAD” value in series [1] came out at 3.00E-07. Moreover, in series [2], the “U87MG p53-elisa LAD” value was 1.00E-06. The “drug induced neurological side effects” value in series [3] was “yes”.
